Tests used:
Test in all cases: Example 24, Procedure II: Herbicide No. 1 + co-herbicides Nos. 4, 6, 7, 12 with Antidote Nos. 15 and 17-21
Type in all cases: in vivo
[1] = system: corn
Description: (§1) Containers were filled and compacted with a fumigated silt loam top soil to a depth of about 1.3 cm from the top of the container. A first container was designated as an untreated control, a second container was designated as a herbicide control, and a third container was designated as a herbicide + antidote test container. Each of the containers was seeded with a crop species. A measured amount of herbicide dispersed or dissolved in acetone was applied to a measured quantity of soil. To this same quantity of soil treated with herbicide, there was added a measured amount of antidote dispersed or dissolved in acetone. The quantity of soil treated with the herbicide and antidote was thoroughly mixed to incorporate the herbicide and antidote in the soil uniformly. The seed bed in the third container of soil was covered with the soil treated with the herbicide and antidote and the container was leveled. For each test series, the seed beds of the first and second containers were likewise covered by soil layers. the cover layer of the first container was not treated with herbicide or antidote.
(§2) The containers were then placed on a bench in a greenhouse and sub-irrigated as required for the duration of the test. […] Plant response is measured in terms of percent injury. Antidote efficacy is indicated as the difference in plant injury by the herbicide(s) without the antidote and with the antidote.
(§3) This procedure is the same as Procedure I, but modified in the manner that after incorporation of the chemicals (herbicide and antidote) the containers with the covered seedbed were treated with an initial overhead irrigation equivalent to 0.6 cm rainfall, then subsequently sub-irrigated as required on greenhouse benches.
(§4) In other greenhouse tests, using Procedure II described above, the safening efficacy of Antidote Nos. 15 and 17-21 was evaluated against Herbicide No. 1 in corn in the presence of Giant foxtail (Setaria fabergi) and Velvetleaf (Abutilon theophrasti) as representative annual monocotyledonous and dicotyledonous weeds, respectively.
(§5) Test results are shown in Tables 23A and 23B wherein the indicated plant inhibition represents the average of duplicate replications, with observations being made thirteen (13) days after application of the chemicals. Giant foxtail and Velvetleaf are represented by the symbols "GFT" and "VL", respectively. The data in Table 23A show the test results using the antidotes at 2.24 kg/ha, whereas in Table 23B, the antidotal rate was reduced to 0.56 kg/ha.
(§6) The tests described in Example 23 were duplicated, but in this example a variety of co-herbicides were included to ascertain the efficacy of the antidotes against combinations of Herbicide No. 1 and Herbicides Nos. 4, 6, 7 and 12 as co-herbicides. Test results are shown in Table 24, wherein the antidote application rate was 2.24 kg/ha.

[2] = system: velvetleaf (Abutilon theophrasti)
Description: as §1, §2, §3, §4, §5, §6

[3] = system: Giant foxtail (Setaria fabergi)
Description: as §1, §2, §3, §4, §5, §6

[4] = Herb. No. 1 0.07 Kg/ha + Co-Herb. No. 4 1.12 Kg/ha + antidote 2.24 Kg/ha
[5] = Herb. No. 1 0.07 Kg/ha + Co-Herb. No. 6 0.14 Kg/ha + antidote 2.24 Kg/ha
[6] = Herb. No. 1 0.07 Kg/ha + Co-Herb. No. 7 0.28 Kg/ha + antidote 2.24 Kg/ha
[7] = Herb. No. 1 0.07 Kg/ha + Co-Herb. No. 12 0.28 Kg/ha + antidote 2.24 Kg/ha
[8] = Herb. No. 1 0.14 Kg/ha + Co-Herb. No. 4 1.12 Kg/ha + antidote 2.24 Kg/ha
[9] = Herb. No. 1 0.14 Kg/ha + Co-Herb. No. 6 0.14 Kg/ha + antidote 2.24 Kg/ha
[10] = Herb. No. 1 0.14 Kg/ha + Co-Herb. No. 7 0.28 Kg/ha + antidote 2.24 Kg/ha
[11] = Herb. No. 1 0.14 Kg/ha + Co-Herb. No. 12 0.28 Kg/ha + antidote 2.24 Kg/ha
[12] = Herb. No. 1 0.28 Kg/ha + Co-Herb. No. 4 1.12 Kg/ha + antidote 2.24 Kg/ha
[13] = Herb. No. 1 0.28 Kg/ha + Co-Herb. No. 6 0.14 Kg/ha + antidote 2.24 Kg/ha
[14] = Herb. No. 1 0.28 Kg/ha + Co-Herb. No. 7 0.28 Kg/ha + antidote 2.24 Kg/ha
[15] = Herb. No. 1 0.28 Kg/ha + Co-Herb. No. 12 0.28 Kg/ha + antidote 2.24 Kg/ha
[16] = Herb. No. 1 0.56 Kg/ha + Co-Herb. No. 4 1.12 Kg/ha + antidote 2.24 Kg/ha
[17] = Herb. No. 1 0.56 Kg/ha + Co-Herb. No. 6 0.14 Kg/ha + antidote 2.24 Kg/ha
[18] = Herb. No. 1 0.56 Kg/ha + Co-Herb. No. 7 0.28 Kg/ha + antidote 2.24 Kg/ha
[19] = Herb. No. 1 0.56 Kg/ha + Co-Herb. No. 12 0.28 Kg/ha + antidote 2.24 Kg/ha

SMILES: CC1COc2ccccc2N1C(=O)C(Cl)Cl (stereo not drawn) [compound 17]
- % Inhibition Corn [1, 4]: 0%
- % Inhibition Corn [1, 5]: 5%
- % Inhibition Corn [1, 6]: 0%
- % Inhibition Corn [1, 7]: 5%
- % Inhibition Corn [1, 8]: 0%
- % Inhibition Corn [1, 9]: 0%
- % Inhibition Corn [1, 10]: 0%
- % Inhibition Corn [1, 11]: 5%
- % Inhibition Corn [1, 12]: 5%
- % Inhibition Corn [1, 13]: 15%
- % Inhibition Corn [1, 14]: 5%
- % Inhibition Corn [1, 15]: 5%
- % Inhibition Corn [1, 16]: 20%
- % Inhibition Corn [1, 17]: 15%
- % Inhibition Corn [1, 18]: 15%
- % Inhibition Corn [1, 19]: 20%
- % Inhibition VL [2, 4]: 90%
- % Inhibition VL [2, 5]: 90%
- % Inhibition VL [2, 6]: 85%
- % Inhibition VL [2, 7]: 90%
- % Inhibition VL [2, 8]: 90%
- % Inhibition VL [2, 9]: 90%
- % Inhibition VL [2, 10]: 95%
- % Inhibition VL [2, 11]: 98%
- % Inhibition VL [2, 12]: 90%
- % Inhibition VL [2, 13]: 95%
- % Inhibition VL [2, 14]: 98%
- % Inhibition VL [2, 15]: 98%
- % Inhibition VL [2, 16]: 95%
- % Inhibition VL [2, 17]: 98%
- % Inhibition VL [2, 18]: 98%
- % Inhibition VL [2, 19]: 95%
- % Inhibition GFT [3, 4]: 55%
- % Inhibition GFT [3, 5]: 100%
- % Inhibition GFT [3, 6]: 100%
- % Inhibition GFT [3, 7]: 99%
- % Inhibition GFT [3, 8]: 50%
- % Inhibition GFT [3, 9]: 100%
- % Inhibition GFT [3, 10]: 100%
- % Inhibition GFT [3, 11]: 99%
- % Inhibition GFT [3, 12]: 45%
- % Inhibition GFT [3, 13]: 98%
- % Inhibition GFT [3, 14]: 100%
- % Inhibition GFT [3, 15]: 98%
- % Inhibition GFT [3, 16]: 70%
- % Inhibition GFT [3, 17]: 99%
- % Inhibition GFT [3, 18]: 99%
- % Inhibition GFT [3, 19]: 100%

SMILES: O=C(O)COC(c1ccccc1)c1ccccc1 [compound 18]
- % Inhibition Corn [1, 4]: 5%
- % Inhibition Corn [1, 5]: 0%
- % Inhibition Corn [1, 6]: 0%
- % Inhibition Corn [1, 7]: 0%
- % Inhibition Corn [1, 8]: 5%
- % Inhibition Corn [1, 9]: 0%
- % Inhibition Corn [1, 10]: 10%
- % Inhibition Corn [1, 11]: 0%
- % Inhibition Corn [1, 12]: 5%
- % Inhibition Corn [1, 13]: 5%
- % Inhibition Corn [1, 14]: 5%
- % Inhibition Corn [1, 15]: 10%
- % Inhibition Corn [1, 16]: 10%
- % Inhibition Corn [1, 17]: 20%
- % Inhibition Corn [1, 18]: 10%
- % Inhibition Corn [1, 19]: 15%
- % Inhibition VL [2, 4]: 90%
- % Inhibition VL [2, 5]: 90%
- % Inhibition VL [2, 6]: 90%
- % Inhibition VL [2, 7]: 80%
- % Inhibition VL [2, 8]: 95%
- % Inhibition VL [2, 9]: 95%
- % Inhibition VL [2, 10]: 95%
- % Inhibition VL [2, 11]: 99%
- % Inhibition VL [2, 12]: 95%
- % Inhibition VL [2, 13]: 95%
- % Inhibition VL [2, 14]: 95%
- % Inhibition VL [2, 15]: 95%
- % Inhibition VL [2, 16]: 90%
- % Inhibition VL [2, 17]: 98%
- % Inhibition VL [2, 18]: 98%
- % Inhibition VL [2, 19]: 95%
- % Inhibition GFT [3, 4]: 65%
- % Inhibition GFT [3, 5]: 100%
- % Inhibition GFT [3, 6]: 99%
- % Inhibition GFT [3, 7]: 100%
- % Inhibition GFT [3, 8]: 55%
- % Inhibition GFT [3, 9]: 99%
- % Inhibition GFT [3, 10]: 99%
- % Inhibition GFT [3, 11]: 99%
- % Inhibition GFT [3, 12]: 70%
- % Inhibition GFT [3, 13]: 99%
- % Inhibition GFT [3, 14]: 100%
- % Inhibition GFT [3, 15]: 100%
- % Inhibition GFT [3, 16]: 65%
- % Inhibition GFT [3, 17]: 100%
- % Inhibition GFT [3, 18]: 100%
- % Inhibition GFT [3, 19]: 99%

SMILES: O=C(O)COC(c1ccccc1)c1ccccc1 [compound 19]
- % Inhibition Corn [1, 4]: 0%
- % Inhibition Corn [1, 5]: 0%
- % Inhibition Corn [1, 6]: 0%
- % Inhibition Corn [1, 7]: 0%
- % Inhibition Corn [1, 8]: 0%
- % Inhibition Corn [1, 9]: 0%
- % Inhibition Corn [1, 10]: 0%
- % Inhibition Corn [1, 11]: 0%
- % Inhibition Corn [1, 12]: 5%
- % Inhibition Corn [1, 13]: 5%
- % Inhibition Corn [1, 14]: 5%
- % Inhibition Corn [1, 15]: 5%
- % Inhibition Corn [1, 16]: 5%
- % Inhibition Corn [1, 17]: 10%
- % Inhibition Corn [1, 18]: 10%
- % Inhibition Corn [1, 19]: 20%
- % Inhibition VL [2, 4]: 90%
- % Inhibition VL [2, 5]: 90%
- % Inhibition VL [2, 6]: 90%
- % Inhibition VL [2, 7]: 85%
- % Inhibition VL [2, 8]: 95%
- % Inhibition VL [2, 9]: 95%
- % Inhibition VL [2, 10]: 90%
- % Inhibition VL [2, 11]: 85%
- % Inhibition VL [2, 12]: 95%
- % Inhibition VL [2, 13]: 95%
- % Inhibition VL [2, 14]: 95%
- % Inhibition VL [2, 15]: 95%
- % Inhibition VL [2, 16]: 90%
- % Inhibition VL [2, 17]: 99%
- % Inhibition VL [2, 18]: 98%
- % Inhibition VL [2, 19]: 99%
- % Inhibition GFT [3, 4]: 40%
- % Inhibition GFT [3, 5]: 100%
- % Inhibition GFT [3, 6]: 99%
- % Inhibition GFT [3, 7]: 99%
- % Inhibition GFT [3, 8]: 60%
- % Inhibition GFT [3, 9]: 100%
- % Inhibition GFT [3, 10]: 99%
- % Inhibition GFT [3, 11]: 99%
- % Inhibition GFT [3, 12]: 45%
- % Inhibition GFT [3, 13]: 99%
- % Inhibition GFT [3, 14]: 99%
- % Inhibition GFT [3, 15]: 100%
- % Inhibition GFT [3, 16]: 70%
- % Inhibition GFT [3, 17]: 99%
- % Inhibition GFT [3, 18]: 99%
- % Inhibition GFT [3, 19]: 99%

SMILES: COC(=O)COC(c1ccccc1)c1ccccc1 [compound 20]
- % Inhibition Corn [1, 4]: 0%
- % Inhibition Corn [1, 5]: 0%
- % Inhibition Corn [1, 6]: 0%
- % Inhibition Corn [1, 7]: 0%
- % Inhibition Corn [1, 8]: 0%
- % Inhibition Corn [1, 9]: 5%
- % Inhibition Corn [1, 10]: 0%
- % Inhibition Corn [1, 11]: 5%
- % Inhibition Corn [1, 12]: 0%
- % Inhibition Corn [1, 13]: 5%
- % Inhibition Corn [1, 14]: 0%
- % Inhibition Corn [1, 15]: 5%
- % Inhibition Corn [1, 16]: 10%
- % Inhibition Corn [1, 17]: 20%
- % Inhibition Corn [1, 18]: 5%
- % Inhibition Corn [1, 19]: 10%
- % Inhibition VL [2, 4]: 90%
- % Inhibition VL [2, 5]: 95%
- % Inhibition VL [2, 6]: 95%
- % Inhibition VL [2, 7]: 90%
- % Inhibition VL [2, 8]: 90%
- % Inhibition VL [2, 9]: 90%
- % Inhibition VL [2, 10]: 90%
- % Inhibition VL [2, 11]: 95%
- % Inhibition VL [2, 12]: 90%
- % Inhibition VL [2, 13]: 98%
- % Inhibition VL [2, 14]: 95%
- % Inhibition VL [2, 15]: 98%
- % Inhibition VL [2, 16]: 95%
- % Inhibition VL [2, 17]: 95%
- % Inhibition VL [2, 18]: 95%
- % Inhibition VL [2, 19]: 98%
- % Inhibition GFT [3, 4]: 65%
- % Inhibition GFT [3, 5]: 100%
- % Inhibition GFT [3, 6]: 98%
- % Inhibition GFT [3, 7]: 99%
- % Inhibition GFT [3, 8]: 40%
- % Inhibition GFT [3, 9]: 99%
- % Inhibition GFT [3, 10]: 98%
- % Inhibition GFT [3, 11]: 100%
- % Inhibition GFT [3, 12]: 65%
- % Inhibition GFT [3, 13]: 100%
- % Inhibition GFT [3, 14]: 100%
- % Inhibition GFT [3, 15]: 100%
- % Inhibition GFT [3, 16]: 65%
- % Inhibition GFT [3, 17]: 100%
- % Inhibition GFT [3, 18]: 99%
- % Inhibition GFT [3, 19]: 100%

— EP0603240B1, “SAFENING HERBICIDAL PYRAZOLYLSULFONYLUREAS” (priority 1991, dated 1993)
